The experiment has as its system L1210 leukemia ip in BDF1 mice, survival T/C. The experiment is described as follows: NCI In Vivo Anticancer Drug Screen. Data for tumor model L1210 Leukemia (intraperitoneal) in B6D2F1 (BDF1) mice. As to conditions: endpoint: mean survival time, higher = longer survival. In a few lines:
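In this screen, tumor-bearing mice given compound are compared to those given vehicle, and their survival values are reported as a treated-to-control quotient.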

[1] abbreviates: dose: 200.0 mg/kg/injection, schedule: Q04DX002 (ip), vehicle: Klucel (hydroxypropylcellulose) (HPC).
The mark [2] stands for this setting: dose: 400.0 mg/kg/injection, schedule: Q04DX002 (ip), vehicle: Klucel (hydroxypropylcellulose) (HPC).
The mark [3] stands for this setting: dose: 100.0 mg/kg/injection, schedule: Q01DX009 (ip), vehicle: saline with Tween-80.
[4] abbreviates: dose: 200.0 mg/kg/injection, schedule: Q01DX009 (ip), vehicle: saline with Tween-80.
Where [5] appears, read: dose: 400.0 mg/kg/injection, schedule: Q01DX009 (ip), vehicle: saline with Tween-80.
Where [6] appears, read: dose: 100.0 mg/kg/injection, schedule: Q01DX001 (ip), vehicle: other.
Setting [7] is: dose: 200.0 mg/kg/injection, schedule: Q01DX001 (ip), vehicle: other.
Where [8] appears, read: dose: 400.0 mg/kg/injection, schedule: Q01DX001 (ip), vehicle: other.
Setting [9] is: dose: 100.0 mg/kg/injection, schedule: Q01DX009 (ip), vehicle: acetone.
Where [10] appears, read: dose: 200.0 mg/kg/injection, schedule: Q01DX009 (ip), vehicle: acetone.
[11] abbreviates: dose: 100.0 mg/kg/injection, schedule: Q04DX003 (ip), vehicle: Klucel (hydroxypropylcellulose) (HPC).
The mark [12] stands for this setting: dose: 200.0 mg/kg/injection, schedule: Q04DX003 (ip), vehicle: Klucel (hydroxypropylcellulose) (HPC).
[13] abbreviates: dose: 400.0 mg/kg/injection, schedule: Q04DX003 (ip), vehicle: Klucel (hydroxypropylcellulose) (HPC).
Where [14] appears, read: dose: 50.0 mg/kg/injection, schedule: Q01DX009 (ip), vehicle: saline with Tween-80.
[15] abbreviates: dose: 50.0 mg/kg/injection, schedule: Q04DX003 (ip), vehicle: saline with Tween-80.
Where [16] appears, read: dose: 100.0 mg/kg/injection, schedule: Q04DX003 (ip), vehicle: saline with Tween-80.
Setting [17] is: dose: 200.0 mg/kg/injection, schedule: Q04DX003 (ip), vehicle: saline with Tween-80.
[18] abbreviates: dose: 400.0 mg/kg/injection, schedule: Q04DX003 (ip), vehicle: saline with Tween-80.
Setting [19] is: dose: 100.0 mg/kg/injection, schedule: Q01DX001 (ip), vehicle: saline.
Where [20] appears, read: dose: 200.0 mg/kg/injection, schedule: Q01DX001 (ip), vehicle: saline.

SMILES strings stand for the structures. Several values for one entry are separate records, joined by “and”; a condition that tells them apart may be missing. Equal entries are not always repeated. Inconclusive results and toxic doses are left out.

As for `Cc1ccc(C(=O)/C=C\c2ccc(Cl)c(Cl)c2)cc1`, the T/C (dose: 100.0 mg/kg/injection, schedule: Q04DX002 (ip), vehicle: Klucel (hydroxypropylcellulose) (HPC)) is 92 % of control; the T/C under setting [1] was 106 % of control; the T/C under setting [2] was 95 % of control.

Take `CCCCNC(=NC)c1ccc(NC(=O)Nc2ccc(NC(=O)Nc3ccc(C(=NC)NCCCC)cc3)cc2)cc1`: the T/C runs as follows: (dose: 2.0 mg/kg/injection, schedule: Q01DX Z (ip), vehicle: methylcellulose (MC)) 103 % of control; (dose: 3.9 mg/kg/injection, schedule: Q01DX Z (ip), vehicle: methylcellulose (MC)) 96 % of control.

As for `NC(=O)OCC(N)C(=O)O` (stereo not drawn), the T/C was 96 % of control (dose: 75.0 mg/kg/injection, schedule: Q01DX001 (ip), vehicle: saline); 89 % of control under setting [3]; 94 % of control (dose: 150.0 mg/kg/injection, schedule: Q01DX001 (ip), vehicle: saline); 87 % of control under setting [4]; 100 % of control (dose: 300.0 mg/kg/injection, schedule: Q01DX001 (ip), vehicle: saline); 90 % of control under setting [5].

`O=C(N/N=C/C=C/c1ccccc1)c1ccco1`: the T/C runs as follows: under setting [6], 87 % of control; under setting [7], 87 % of control; under setting [8], 93 % of control.

On to `IC1=CC2CCC(C1)C2` (stereo not drawn), for which the T/C runs as follows: under setting [9], 109 % of control; under setting [10], 97 % of control.

On to `CCS(=O)(=O)c1ccc(NC(=O)OC2CCCC2)cc1`, for which the T/C is 100 % of control under setting [6], 96 % of control under setting [7] and 89 % of control under setting [8].

In the case of `CCOC(=O)/C(C)=N\Nc1ccc(Cl)cc1`, the T/C is 106 % of control (dose: 100.0 mg/kg/injection, schedule: Q01DX009 (ip), vehicle: Klucel (hydroxypropylcellulose) (HPC)); 102 % of control under setting [11]; 98 % of control (dose: 200.0 mg/kg/injection, schedule: Q01DX009 (ip), vehicle: Klucel (hydroxypropylcellulose) (HPC)); 98 % of control under setting [12]; 98 % of control (dose: 400.0 mg/kg/injection, schedule: Q01DX009 (ip), vehicle: Klucel (hydroxypropylcellulose) (HPC)); 99 % of control under setting [13].

For `O=S1(=O)N=C(c2ccccc2)CC(c2ccccc2)N1` (stereo not drawn), the T/C runs as follows: (dose: 25.0 mg/kg/injection, schedule: Q01DX009 (ip), vehicle: saline with Tween-80) 87 % of control; under setting [14], 96 % of control; under setting [15], 98 % of control; under setting [3], 94 % of control; under setting [16], 93 % of control; under setting [4], 93 % of control. Under setting [17], the T/C is 86 % of control.

Consider `N#CCCCCN1C(=O)c2ccccc2C1=O`, for which the T/C under setting [14] is 94 % of control, the T/C under setting [3] was 94 % of control, the T/C under setting [16] is 98 % of control and the T/C under setting [17] is 97 % of control.

As to `Cc1ccccc1C1(c2ccccc2C)OC(=O)c2ccccc21`, the T/C under setting [3] is 93 % of control, the T/C under setting [4] was 89 % of control and the T/C under setting [5] is 90 % of control.

As for `c1ccc(P(=NC2CCCC2)(c2ccccc2)c2ccccc2)cc1`, the T/C was 89 % of control under setting [16], 92 % of control under setting [17] and 87 % of control under setting [18].

Take `COC(=O)C1C2CCC(C2)C1C` (stereo not drawn): the T/C was 101 % of control (dose: 25.0 mg/kg/injection, schedule: Q04DX003 (ip), vehicle: saline with Tween-80); 97 % of control under setting [15]; 94 % of control under setting [16].

Consider `C[S+]1Cc2ccccc2C1`, for which the T/C reads like this: under setting [16], 106 % of control; under setting [17], 104 % of control.

In the case of `CC1(CO)COCOC1`, the T/C is, setting by setting: (dose: 50.0 mg/kg/injection, schedule: Q01DX009 (ip), vehicle: acetone) 104 % of control; under setting [9], 108 % of control; (dose: 100.0 mg/kg/injection, schedule: Q04DX003 (ip), vehicle: acetone) 95 % of control; under setting [10], 104 % of control; (dose: 200.0 mg/kg/injection, schedule: Q04DX003 (ip), vehicle: acetone) 105 % of control; (dose: 400.0 mg/kg/injection, schedule: Q04DX003 (ip), vehicle: acetone) 97 % of control.

As to `COc1ccc(OC)c(NC(=O)Nc2cc([N+](=O)[O-])ccc2C)c1`, the T/C by setting is: under setting [1], 92 % of control; under setting [2], 100 % of control.

On to `CCCCCCOC(=O)C(N)Cc1ccc(O)c(N(CCCl)CCCl)c1` (stereo not drawn), for which the T/C is, setting by setting: (dose: 0.01 mg/kg/injection, schedule: Q01DX009 (ip), vehicle: saline) 123 % of control; (dose: 0.12 mg/kg/injection, schedule: Q01DX001 (ip), vehicle: saline) 159 % of control; (dose: 0.3 mg/kg/injection, schedule: Q01DX009 (ip), vehicle: saline) 163 % of control; (dose: 0.5 mg/kg/injection, schedule: Q01DX001 (ip), vehicle: saline) 313 % of control; (dose: 0.6 mg/kg/injection, schedule: Q01DX009 (ip), vehicle: saline) 221 % of control; (dose: 1.0 mg/kg/injection, schedule: Q01DX001 (ip), vehicle: saline) 120 % of control. The T/C is 210 % of control (dose: 1.1 mg/kg/injection, schedule: Q01DX009 (ip), vehicle: saline); 198 % of control (dose: 2.2 mg/kg/injection, schedule: Q01DX001 (ip), vehicle: saline); 163 % of control (dose: 2.5 mg/kg/injection, schedule: Q01DX001 (ip), vehicle: saline); 153 % of control (dose: 3.3 mg/kg/injection, schedule: Q01DX001 (ip), vehicle: saline); 157 % of control and 236 % of control (dose: 5.0 mg/kg/injection, schedule: Q01DX001 (ip), vehicle: saline); 104 % of control (dose: 1.0 micrograms/kg/injection, schedule: Q01DX009 (ip), vehicle: saline). Moreover, for the setting “dose: 8.0 micrograms/kg/injection, schedule: Q01DX009 (ip), vehicle: saline”, the T/C was 189 % of control.

Regarding `N#C/C(=C1/N=C(N)NC1=O)c1ccc(Cl)cc1`, the T/C (dose: 25.0 mg/kg/injection, schedule: Q01DX001 (ip), vehicle: saline with Tween-80) is 92 % of control; the T/C (dose: 50.0 mg/kg/injection, schedule: Q01DX001 (ip), vehicle: saline with Tween-80) is 89 % of control; the T/C (dose: 100.0 mg/kg/injection, schedule: Q01DX001 (ip), vehicle: saline with Tween-80) is 94 % of control.

`O=[N+]([O-])c1cc([N+](=O)[O-])c2nn(-c3ccccc3)[n+]([O-])c2c1`: the T/C runs as follows: under setting [11], 101 % of control; under setting [12], 97 % of control; under setting [13], 98 % of control.

Regarding `COc1cc(/C=N/N2C(=O)CSC2=S)ccc1OCc1ccccc1`, the T/C by setting is: under setting [3], 89 % of control; under setting [16], 93 % of control; under setting [4], 91 % of control; under setting [17], 93 % of control; under setting [18], 86 % of control.

Regarding `c1ccc2c(c1)OC1OC2Oc2ccccc21`, the T/C was 97 % of control under setting [19]; 104 % of control and 92 % of control (dose: 177.0 mg/kg/injection, schedule: Q01DX001 (ip), vehicle: saline); 101 % of control under setting [20]; 93 % of control and 94 % of control (dose: 266.0 mg/kg/injection, schedule: Q01DX001 (ip), vehicle: saline); 88 % of control and 90 % of control (dose: 400.0 mg/kg/injection, schedule: Q01DX001 (ip), vehicle: saline); 86 % of control and 92 % of control (dose: 600.0 mg/kg/injection, schedule: Q01DX001 (ip), vehicle: saline).

For the molecule `COC(=O)C1(C(=O)OC)NNC(=O)c2cc(Br)ccc2N1`, the T/C is 101 % of control (dose: 50.0 mg/kg/injection, schedule: Q01DX001 (ip), vehicle: saline); 89 % of control under setting [19]; 95 % of control under setting [20].

The values are drawn from PubChem BioAssay AID248 (DTP/NCI, 2004).
